In paper PMC10141580, “Cyclic Dichalcogenides Extend the Reach of Bioreductive Prodrugs to Harness Thiol/Disulfide Oxidoreductases: Applications to seco-Duocarmycins Targeting the Thioredoxin System” (ACS Central Science, 2023):
Read-outs that look alike come from different tables or passages of the source.

Tested on: NCI-60 standardized human tumor cell line panel
Assay: cells
Assay type: cell-based
Conditions: for NCI-60 screening: Log(GI50): log10 of GI50 in M; for NCI-60 screening: Log(RedIndex): log10 reductive index vs P-CC60

SMILES: COc1cc2cc(C(=O)N3C[C@@H](CCl)c4c3cc(OC(=O)N(CCC(=O)N3CCN(C)CC3)[C@H]3CCSSC3)c3ccccc43)[nH]c2c(OC)c1OC [P-SS60-CBI-TMI]
- NCI-60 screening: Log(GI50) (786-0 (RE) cell line): -6.79
- NCI-60 screening: Log(RedIndex) (786-0 (RE) cell line): 1.02
- GI50 (786-0 (RE) cell line, read-out: NCI-60 screening: Raw GI50): 160 nM
- GI50 (786-0, read-out: GI50): 160 nM
- NCI-60 screening: Log(GI50) (A498 (RE) cell line): -6.6
- NCI-60 screening: Log(RedIndex) (A498 (RE) cell line): 1.04
- GI50 (A498 (RE) cell line, read-out: NCI-60 screening: Raw GI50): 250 nM
- GI50 (A498, read-out: GI50): 250 nM
- GI50 (A549/ATCC, read-out: GI50): 150 nM
- NCI-60 screening: Log(GI50) (ACHN (RE) cell line): -7.25
- NCI-60 screening: Log(RedIndex) (ACHN (RE) cell line): 0.94
- GI50 (ACHN (RE) cell line, read-out: NCI-60 screening: Raw GI50): 56 nM
- GI50 (ACHN, read-out: GI50): 56 nM
- GI50 (BT-549, read-out: GI50): 230 nM
- NCI-60 screening: Log(GI50) (CAKI-1 (RE) cell line): -6.57
- NCI-60 screening: Log(RedIndex) (CAKI-1 (RE) cell line): 0.74
- GI50 (CAKI-1 (RE) cell line, read-out: NCI-60 screening: Raw GI50): 270 nM
- GI50 (CAKI-1, read-out: GI50): 270 nM
- GI50 (CCRF-CEM, read-out: GI50): 220 nM
- GI50 (COLO 205, read-out: GI50): 340 nM
- NCI-60 screening: Log(GI50) (DU-145 (PR) cell line): -7.23
- NCI-60 screening: Log(RedIndex) (DU-145 (PR) cell line): 0.89
- GI50 (DU-145, read-out: GI50): 59 nM
- GI50 (EKVX, read-out: GI50): 320 nM
- GI50 (HCC-2998, read-out: GI50): 160 nM
- GI50 (HCT-15, read-out: GI50): 260 nM
- GI50 (HCT-116, read-out: GI50): 160 nM
- GI50 (HL-60(TB), read-out: GI50): 120 nM
- GI50 (HOP-62, read-out: GI50): 110 nM
- GI50 (HOP-92, read-out: GI50): 350 nM
- GI50 (HT29, read-out: GI50): 270 nM
- NCI-60 screening: Log(GI50) (IGROV1 (OV) cell line): -6.3
- NCI-60 screening: Log(RedIndex) (IGROV1 (OV) cell line): 0.66
- GI50 (IGROV1, read-out: GI50): 500 nM
- GI50 (K-562, read-out: GI50): 160 nM
- GI50 (KM12, read-out: GI50): 270 nM
- GI50 (LOX IMVI, read-out: GI50): 210 nM
- GI50 (M14, read-out: GI50): 190 nM
- GI50 (MALME-3M, read-out: GI50): 280 nM
- GI50 (MCF7, read-out: GI50): 35 nM
- GI50 (MDA-MB-435, read-out: GI50): 210 nM
- GI50 (MDA-MB-468, read-out: GI50): 170 nM
- GI50 (MOLT-4, read-out: GI50): 90 nM
- GI50/IC50, mean (NCI-60 vs ProliFiler, 19 overlapping cell lines): 4.0
- GI50 (NCI-H23, read-out: GI50): 55 nM
- GI50 (NCI-H226, read-out: GI50): 430 nM
- NCI-60 screening: Log(GI50) (NCI-H460 (LC) cell line): -7.25
- NCI-60 screening: Log(RedIndex) (NCI-H460 (LC) cell line): 0.96
- GI50 (NCI-H460 (LC) cell line, read-out: NCI-60 screening: Raw GI50): 56 nM
- GI50 (NCI-H460, read-out: GI50): 56 nM
- NCI-60 screening: Log(GI50) (NCI-H522 (LC) cell line): -6.58
- NCI-60 screening: Log(RedIndex) (NCI-H522 (LC) cell line): 0.81
- GI50 (NCI-H522 (LC) cell line, read-out: NCI-60 screening: Raw GI50): 260 nM
- GI50 (NCI-H522, read-out: GI50): 260 nM
- NCI-60 screening: Log(GI50) (OVCAR-3 (OV) cell line): -6.63
- NCI-60 screening: Log(RedIndex) (OVCAR-3 (OV) cell line): 0.95
- GI50 (OVCAR-3, read-out: GI50): 240 nM
- NCI-60 screening: Log(GI50) (OVCAR-4 (OV) cell line): -6.33
- NCI-60 screening: Log(RedIndex) (OVCAR-4 (OV) cell line): 0.7
- GI50 (OVCAR-4, read-out: GI50): 460 nM
- NCI-60 screening: Log(GI50) (OVCAR-5 (OV) cell line): -6.51
- NCI-60 screening: Log(RedIndex) (OVCAR-5 (OV) cell line): 1.22
- GI50 (OVCAR-5, read-out: GI50): 310 nM
- NCI-60 screening: Log(GI50) (OVCAR-8 (OV) cell line): -6.73
- NCI-60 screening: Log(RedIndex) (OVCAR-8 (OV) cell line): 0.95
- GI50 (OVCAR-8 (OV) cell line, read-out: NCI-60 screening: Raw GI50): 190 nM
- GI50 (OVCAR-8, read-out: GI50): 190 nM
- NCI-60 screening: Log(GI50) (PC-3 (PR) cell line): -6.14
- NCI-60 screening: Log(RedIndex) (PC-3 (PR) cell line): 0.64
- GI50 (PC-3, read-out: GI50): 720 nM
- GI50 (RPMI-8226, read-out: GI50): 220 nM
- NCI-60 screening: Log(GI50) (RXF 393 (RE) cell line): -6.83
- NCI-60 screening: Log(RedIndex) (RXF 393 (RE) cell line): 0.85
- GI50 (RXF 393 (RE) cell line, read-out: NCI-60 screening: Raw GI50): 150 nM
- GI50 (RXF 393, read-out: GI50): 150 nM
- GI50 (SF-268, read-out: GI50): 190 nM
- GI50 (SF-295, read-out: GI50): 140 nM
- GI50 (SF-539, read-out: GI50): 170 nM
- GI50 (SK-MEL-5, read-out: GI50): 170 nM
- GI50 (SK-MEL-28, read-out: GI50): 290 nM
- NCI-60 screening: Log(GI50) (SK-OV-3 (OV) cell line): -6.58
- NCI-60 screening: Log(RedIndex) (SK-OV-3 (OV) cell line): 0.91
- GI50 (SK-OV-3 (OV) cell line, read-out: NCI-60 screening: Raw GI50): 260 nM
- GI50 (SK-OV-3, read-out: GI50): 260 nM
- NCI-60 screening: Log(GI50) (SN12C (RE) cell line): -6.54
- NCI-60 screening: Log(RedIndex) (SN12C (RE) cell line): 0.62
- GI50 (SN12C (RE) cell line, read-out: NCI-60 screening: Raw GI50): 290 nM
- GI50 (SN12C, read-out: GI50): 290 nM
- GI50 (SNB-19, read-out: GI50): 250 nM
- GI50 (SR, read-out: GI50): 34 nM
- GI50 (SW-620, read-out: GI50): 220 nM
- GI50 (T-47D, read-out: GI50): 700 nM
- NCI-60 screening: Log(GI50) (TK-10 (RE) cell line): -5.47
- NCI-60 screening: Log(RedIndex) (TK-10 (RE) cell line): -0.07
- GI50 (TK-10, read-out: GI50): 3400 nM
